Assay results taken from the kinase profiling compilation of Christmann-Franck et al. (2016).
Where “and” joins values, the source holds several entries; their conditions need not be identical. Equal entries are not always repeated.

What was measured:
Assay in all cases: radiometric filter-binding kinase assay, Kinase HotSpot
Conditions in all cases: compound 0.5 µM; ATP 10 µM
ERBB2 (human) = ERBB2 (human) (UniProt P04626)
CDK6 CCND1 (human) = CDK6 CCND1 (human) (UniProt Q00534+P24385)
ROCK1 (human) = ROCK1 (human) (UniProt Q13464)
PRKCA (human) = PRKCA (human) (UniProt P17252)
MAPK12 (human) = MAPK12 (human) (UniProt P53778)
NUAK2 (human) = NUAK2 (human) (UniProt Q9H093)
ALK (human) = ALK (human) (UniProt Q9UM73)
KDR (human) = KDR (human) (UniProt P35968)
NEK6 (human) = NEK6 (human) (UniProt Q9HC98)
NEK7 (human) = NEK7 (human) (UniProt Q8TDX7)
ACVR1 (human) = ACVR1 (human) (UniProt Q04771)
FGFR4 (human) = FGFR4 (human) (UniProt P22455)
MYLK (human) = MYLK (human) (UniProt Q15746)
PRKG1 (human) = PRKG1 (human) (UniProt Q13976)
KIT (human) = KIT (human) (UniProt P10721)
SRPK1 (human) = SRPK1 (human) (UniProt Q96SB4)
ULK1 (human) = ULK1 (human) (UniProt O75385)
PRKD2 (human) = PRKD2 (human) (UniProt Q9BZL6)
MELK (human) = MELK (human) (UniProt Q14680)
RPS6KA1 KD1 KD2 (human) = RPS6KA1 KD1 KD2 (human) (UniProt Q15418)
PRKCH (human) = PRKCH (human) (UniProt P24723)
SGK2 (human) = SGK2 (human) (UniProt Q9HBY8)
MAPK10 (human) = MAPK10 (human) (UniProt P53779)
NEK4 (human) = NEK4 (human) (UniProt P51957)
PIM3 (human) = PIM3 (human) (UniProt Q86V86)
MAPK13 (human) = MAPK13 (human) (UniProt O15264)
JAK3 JH1 JH2 (human) = JAK3 JH1 JH2 (human) (UniProt P52333)
IRAK1 (human) = IRAK1 (human) (UniProt P51617)
AURKC (human) = AURKC (human) (UniProt Q9UQB9)
MAPK1 (human) = MAPK1 (human) (UniProt P28482)
RPS6KB1 (human) = RPS6KB1 (human) (UniProt P23443)
TEC (human) = TEC (human) (UniProt P42680)
EPHA4 (human) = EPHA4 (human) (UniProt P54764)
RPS6KB2 (human) = RPS6KB2 (human) (UniProt Q9UBS0)
MST1R (human) = MST1R (human) (UniProt Q04912)
MARK1 (human) = MARK1 (human) (UniProt Q9P0L2)
PRKCZ (human) = PRKCZ (human) (UniProt Q05513)
CLK3 (human) = CLK3 (human) (UniProt P49761)
MST4 (human) = MST4 (human) (UniProt Q9P289)
PASK (human) = PASK (human) (UniProt Q96RG2)
CHUK (human) = CHUK (human) (UniProt O15111)
CHEK2 (human) = CHEK2 (human) (UniProt O96017)

ROCK1 (human), sequence (Q13464 whole entry, looked up): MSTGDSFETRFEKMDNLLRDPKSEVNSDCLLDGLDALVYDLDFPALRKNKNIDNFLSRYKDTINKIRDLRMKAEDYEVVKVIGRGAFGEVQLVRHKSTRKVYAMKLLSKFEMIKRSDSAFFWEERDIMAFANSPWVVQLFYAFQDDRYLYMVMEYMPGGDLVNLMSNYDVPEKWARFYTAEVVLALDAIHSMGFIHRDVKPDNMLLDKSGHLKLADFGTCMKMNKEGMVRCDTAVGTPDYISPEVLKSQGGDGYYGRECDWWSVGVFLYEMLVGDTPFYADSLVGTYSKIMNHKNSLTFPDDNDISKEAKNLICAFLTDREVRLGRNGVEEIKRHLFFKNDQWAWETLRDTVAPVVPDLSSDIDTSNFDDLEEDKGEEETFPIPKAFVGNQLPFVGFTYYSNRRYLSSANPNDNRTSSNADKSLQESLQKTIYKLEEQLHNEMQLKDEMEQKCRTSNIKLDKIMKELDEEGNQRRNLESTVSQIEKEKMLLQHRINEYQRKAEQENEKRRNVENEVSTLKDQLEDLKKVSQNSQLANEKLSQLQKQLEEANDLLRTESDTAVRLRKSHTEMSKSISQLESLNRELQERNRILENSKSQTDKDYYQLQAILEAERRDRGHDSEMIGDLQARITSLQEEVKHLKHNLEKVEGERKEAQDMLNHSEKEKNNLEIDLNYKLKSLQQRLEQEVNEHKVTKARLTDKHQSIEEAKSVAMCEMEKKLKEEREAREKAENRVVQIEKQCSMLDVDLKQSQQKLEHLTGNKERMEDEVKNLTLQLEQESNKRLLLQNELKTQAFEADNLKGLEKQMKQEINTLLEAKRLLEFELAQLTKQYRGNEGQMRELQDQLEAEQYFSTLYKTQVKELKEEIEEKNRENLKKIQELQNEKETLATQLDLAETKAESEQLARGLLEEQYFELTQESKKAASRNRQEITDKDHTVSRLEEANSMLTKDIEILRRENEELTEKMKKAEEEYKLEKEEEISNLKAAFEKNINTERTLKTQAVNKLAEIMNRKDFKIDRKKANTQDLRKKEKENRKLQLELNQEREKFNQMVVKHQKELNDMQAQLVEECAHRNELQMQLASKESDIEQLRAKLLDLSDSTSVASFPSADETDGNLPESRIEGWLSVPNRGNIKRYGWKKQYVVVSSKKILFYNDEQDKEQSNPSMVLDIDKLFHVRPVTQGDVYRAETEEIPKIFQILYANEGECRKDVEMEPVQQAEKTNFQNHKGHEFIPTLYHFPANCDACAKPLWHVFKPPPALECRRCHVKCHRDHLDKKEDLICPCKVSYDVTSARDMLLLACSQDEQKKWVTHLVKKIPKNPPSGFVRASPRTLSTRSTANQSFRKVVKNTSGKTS
CDK6 CCND1 (human), sequence (P24385 whole entry, looked up): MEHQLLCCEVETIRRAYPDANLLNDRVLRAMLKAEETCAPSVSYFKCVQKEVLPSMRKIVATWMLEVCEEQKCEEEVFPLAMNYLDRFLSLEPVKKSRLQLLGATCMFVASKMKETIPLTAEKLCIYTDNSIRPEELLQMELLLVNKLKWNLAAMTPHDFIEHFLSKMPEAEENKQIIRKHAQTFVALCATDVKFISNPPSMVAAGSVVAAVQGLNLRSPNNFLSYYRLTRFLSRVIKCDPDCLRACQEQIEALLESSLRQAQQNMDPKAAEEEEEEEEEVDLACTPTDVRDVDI
CDK6 CCND1 (human), sequence (Q00534 whole entry, looked up): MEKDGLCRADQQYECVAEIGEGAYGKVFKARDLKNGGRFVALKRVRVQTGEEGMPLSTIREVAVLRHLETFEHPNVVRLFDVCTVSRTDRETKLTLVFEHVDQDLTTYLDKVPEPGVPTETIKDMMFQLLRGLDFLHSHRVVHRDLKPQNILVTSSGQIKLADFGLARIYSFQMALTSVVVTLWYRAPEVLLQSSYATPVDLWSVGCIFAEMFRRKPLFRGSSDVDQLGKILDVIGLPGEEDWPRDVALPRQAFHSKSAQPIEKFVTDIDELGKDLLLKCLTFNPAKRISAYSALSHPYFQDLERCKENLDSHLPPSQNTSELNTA
KDR (human), sequence (P35968 whole entry, looked up): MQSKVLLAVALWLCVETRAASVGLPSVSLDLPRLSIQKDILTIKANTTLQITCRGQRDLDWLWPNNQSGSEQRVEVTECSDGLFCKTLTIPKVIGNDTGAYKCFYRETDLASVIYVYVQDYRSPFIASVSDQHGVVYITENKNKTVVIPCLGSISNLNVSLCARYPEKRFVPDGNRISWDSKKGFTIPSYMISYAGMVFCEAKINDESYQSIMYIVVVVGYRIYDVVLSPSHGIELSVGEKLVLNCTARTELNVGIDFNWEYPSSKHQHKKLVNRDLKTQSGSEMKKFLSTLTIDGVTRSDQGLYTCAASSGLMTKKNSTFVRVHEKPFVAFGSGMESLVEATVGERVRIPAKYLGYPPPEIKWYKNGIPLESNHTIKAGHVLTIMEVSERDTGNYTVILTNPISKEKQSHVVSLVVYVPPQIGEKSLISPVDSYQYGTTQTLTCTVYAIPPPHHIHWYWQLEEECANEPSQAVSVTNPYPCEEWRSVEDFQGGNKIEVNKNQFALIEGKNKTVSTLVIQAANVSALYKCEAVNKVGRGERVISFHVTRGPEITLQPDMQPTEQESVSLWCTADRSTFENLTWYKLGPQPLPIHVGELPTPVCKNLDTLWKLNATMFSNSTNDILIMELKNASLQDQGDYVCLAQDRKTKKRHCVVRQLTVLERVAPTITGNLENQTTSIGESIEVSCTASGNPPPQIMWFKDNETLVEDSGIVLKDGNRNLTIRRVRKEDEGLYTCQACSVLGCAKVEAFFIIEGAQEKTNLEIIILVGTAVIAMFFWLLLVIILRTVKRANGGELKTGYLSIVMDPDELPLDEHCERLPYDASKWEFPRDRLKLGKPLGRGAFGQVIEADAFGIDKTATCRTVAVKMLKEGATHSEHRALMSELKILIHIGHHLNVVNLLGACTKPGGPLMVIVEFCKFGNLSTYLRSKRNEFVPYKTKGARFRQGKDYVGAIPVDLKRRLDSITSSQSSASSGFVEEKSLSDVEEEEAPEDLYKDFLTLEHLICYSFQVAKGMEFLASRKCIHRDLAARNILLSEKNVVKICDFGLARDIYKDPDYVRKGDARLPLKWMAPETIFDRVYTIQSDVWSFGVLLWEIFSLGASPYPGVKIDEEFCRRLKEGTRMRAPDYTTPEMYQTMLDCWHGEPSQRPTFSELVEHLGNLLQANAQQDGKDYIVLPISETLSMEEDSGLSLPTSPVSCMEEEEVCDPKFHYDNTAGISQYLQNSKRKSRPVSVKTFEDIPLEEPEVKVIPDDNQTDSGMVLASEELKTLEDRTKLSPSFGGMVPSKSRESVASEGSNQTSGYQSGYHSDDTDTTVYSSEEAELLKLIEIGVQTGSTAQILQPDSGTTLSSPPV
NUAK2 (human), sequence (Q9H093 whole entry, looked up): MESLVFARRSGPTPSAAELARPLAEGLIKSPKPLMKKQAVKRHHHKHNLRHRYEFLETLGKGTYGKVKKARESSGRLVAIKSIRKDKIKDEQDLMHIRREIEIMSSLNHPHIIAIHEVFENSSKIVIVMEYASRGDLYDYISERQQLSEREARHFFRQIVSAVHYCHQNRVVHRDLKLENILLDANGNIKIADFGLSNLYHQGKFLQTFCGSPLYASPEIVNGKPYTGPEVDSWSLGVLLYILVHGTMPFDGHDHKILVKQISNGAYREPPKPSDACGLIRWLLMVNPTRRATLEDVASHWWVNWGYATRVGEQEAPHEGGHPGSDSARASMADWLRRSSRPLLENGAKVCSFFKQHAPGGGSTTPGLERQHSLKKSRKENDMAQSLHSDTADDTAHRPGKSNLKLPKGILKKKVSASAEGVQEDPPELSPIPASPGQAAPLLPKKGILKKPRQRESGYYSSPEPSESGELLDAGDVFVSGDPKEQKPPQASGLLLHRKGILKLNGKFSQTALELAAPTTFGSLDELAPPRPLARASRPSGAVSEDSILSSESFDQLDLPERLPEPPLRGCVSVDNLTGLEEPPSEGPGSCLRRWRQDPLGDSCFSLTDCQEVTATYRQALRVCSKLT
PRKD2 (human), sequence (Q9BZL6 whole entry, looked up): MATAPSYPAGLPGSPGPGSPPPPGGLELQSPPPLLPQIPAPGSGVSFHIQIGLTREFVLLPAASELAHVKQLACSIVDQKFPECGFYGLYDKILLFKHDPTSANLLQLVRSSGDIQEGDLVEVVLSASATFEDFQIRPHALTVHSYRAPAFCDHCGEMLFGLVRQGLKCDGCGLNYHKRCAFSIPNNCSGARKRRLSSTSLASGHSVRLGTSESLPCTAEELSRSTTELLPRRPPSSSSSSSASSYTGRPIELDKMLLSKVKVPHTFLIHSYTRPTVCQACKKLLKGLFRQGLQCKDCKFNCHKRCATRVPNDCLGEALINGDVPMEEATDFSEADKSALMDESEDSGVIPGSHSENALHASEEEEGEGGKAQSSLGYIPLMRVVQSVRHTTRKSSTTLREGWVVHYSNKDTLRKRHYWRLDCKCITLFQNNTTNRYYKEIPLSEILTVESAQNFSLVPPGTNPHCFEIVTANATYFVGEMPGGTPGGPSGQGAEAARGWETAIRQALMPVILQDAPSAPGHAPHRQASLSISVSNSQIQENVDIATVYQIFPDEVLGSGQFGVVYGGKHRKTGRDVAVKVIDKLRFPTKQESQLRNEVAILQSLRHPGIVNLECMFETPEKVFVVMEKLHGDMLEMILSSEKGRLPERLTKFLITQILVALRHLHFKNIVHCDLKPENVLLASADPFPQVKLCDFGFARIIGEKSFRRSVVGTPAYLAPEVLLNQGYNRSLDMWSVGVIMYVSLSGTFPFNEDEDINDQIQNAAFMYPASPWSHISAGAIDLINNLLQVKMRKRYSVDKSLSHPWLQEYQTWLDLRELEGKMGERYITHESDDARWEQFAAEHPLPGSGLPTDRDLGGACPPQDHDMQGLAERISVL

Structure (SMILES): NC(=O)c1cccc(-c2cc(Nc3ccc(OC(F)(F)F)cc3)ncn2)c1
- residual activity (ERBB2 (human)): 89.5%
- residual activity (CDK6 CCND1 (human)): 99.1%
- residual activity (ROCK1 (human)): 96.8%
- residual activity (PRKCA (human)): 77.4%
- residual activity (MAPK12 (human)): 111%
- residual activity (NUAK2 (human)): 87.8%
- residual activity (ALK (human)): 103%
- residual activity (KDR (human)): 99.8%
- residual activity (NEK6 (human)): 97.4%
- residual activity (NEK7 (human)): 96.3%
- residual activity (ACVR1 (human)): 99.4%
- residual activity (FGFR4 (human)): 92.9%
- residual activity (MYLK (human)): 91.9%
- residual activity (PRKG1 (human)): 92.9% and 98.4%
- residual activity (KIT (human)): 100%
- residual activity (SRPK1 (human)): 98%
- residual activity (ULK1 (human)): 97.5%
- residual activity (PRKD2 (human)): 102%
- residual activity (MELK (human)): 94.5%
- residual activity (RPS6KA1 KD1 KD2 (human)): 92.7%
- residual activity (PRKCH (human)): 98.4%
- residual activity (SGK2 (human)): 116%
- residual activity (MAPK10 (human)): 104%
- residual activity (NEK4 (human)): 98%
- residual activity (PIM3 (human)): 88.6%
- residual activity (MAPK13 (human)): 98.1%
- residual activity (JAK3 JH1 JH2 (human)): 101%
- residual activity (IRAK1 (human)): 101%
- residual activity (AURKC (human)): 101%
- residual activity (MAPK1 (human)): 96.6%
- residual activity (RPS6KB1 (human)): 109%
- residual activity (TEC (human)): 139%
- residual activity (EPHA4 (human)): 94.4%
- residual activity (RPS6KB2 (human)): 102%
- residual activity (MST1R (human)): 111%
- residual activity (MARK1 (human)): 94.7%
- residual activity (PRKCZ (human)): 100%
- residual activity (CLK3 (human)): 104%
- residual activity (MST4 (human)): 94.7%
- residual activity (PASK (human)): 100%
- residual activity (CHUK (human)): 95%
- residual activity (CHEK2 (human)): 101%

Structure (SMILES): O=C1Nc2ccc(Br)cc2/C1=C\c1cc2c([nH]1)CCCC2
- residual activity (ERBB2 (human)): 115%
- residual activity (CDK6 CCND1 (human)): 90.4%
- residual activity (ROCK1 (human)): 98.8%
- residual activity (PRKCA (human)): 102%
- residual activity (MAPK12 (human)): 93%
- residual activity (NUAK2 (human)): 133%
- residual activity (ALK (human)): 88.5%
- residual activity (KDR (human)): 70.9%
- residual activity (NEK6 (human)): 103%
- residual activity (NEK7 (human)): 103%
- residual activity (ACVR1 (human)): 97%
- residual activity (FGFR4 (human)): 77%
- residual activity (MYLK (human)): 95.7%
- residual activity (PRKG1 (human)): 77% and 87.9%
- residual activity (KIT (human)): 30.5%
- residual activity (SRPK1 (human)): 98.3%
- residual activity (ULK1 (human)): 69.4%
- residual activity (PRKD2 (human)): 95.8%
- residual activity (MELK (human)): 75.6%
- residual activity (RPS6KA1 KD1 KD2 (human)): 70.4%
- residual activity (PRKCH (human)): 97.4%
- residual activity (SGK2 (human)): 101%
- residual activity (MAPK10 (human)): 98.7%
- residual activity (NEK4 (human)): 80.5%
- residual activity (PIM3 (human)): 87.5%
- residual activity (MAPK13 (human)): 100%
- residual activity (JAK3 JH1 JH2 (human)): 89.3%
- residual activity (IRAK1 (human)): 97%
- residual activity (AURKC (human)): 86.3%
- residual activity (MAPK1 (human)): 103%
- residual activity (RPS6KB1 (human)): 91.9%
- residual activity (TEC (human)): 129%
- residual activity (EPHA4 (human)): 94.8%
- residual activity (RPS6KB2 (human)): 102%
- residual activity (MST1R (human)): 88.3%
- residual activity (MARK1 (human)): 69%
- residual activity (PRKCZ (human)): 104%
- residual activity (CLK3 (human)): 101%
- residual activity (MST4 (human)): 87.9%
- residual activity (PASK (human)): 98.9%
- residual activity (CHUK (human)): 99.1%
- residual activity (CHEK2 (human)): 68.2%

Structure (SMILES): Cc1cncc2cccc(S(=O)(=O)N3CCCN(C(=O)CN)C[C@H]3C)c12
- residual activity (ERBB2 (human)): 99.7%
- residual activity (CDK6 CCND1 (human)): 99.8%
- residual activity (ROCK1 (human)): 3.44%
- residual activity (PRKCA (human)): 109%
- residual activity (MAPK12 (human)): 107%
- residual activity (NUAK2 (human)): 125%
- residual activity (ALK (human)): 113%
- residual activity (KDR (human)): 99%
- residual activity (NEK6 (human)): 93.3%
- residual activity (NEK7 (human)): 103%
- residual activity (ACVR1 (human)): 95.8%
- residual activity (FGFR4 (human)): 79.5%
- residual activity (MYLK (human)): 103%
- residual activity (PRKG1 (human)): 78.7% and 85%
- residual activity (KIT (human)): 92.9%
- residual activity (SRPK1 (human)): 103%
- residual activity (ULK1 (human)): 51.8%
- residual activity (PRKD2 (human)): 96%
- residual activity (MELK (human)): 83%
- residual activity (RPS6KA1 KD1 KD2 (human)): 90.4%
- residual activity (PRKCH (human)): 34.4%
- residual activity (SGK2 (human)): 102%
- residual activity (MAPK10 (human)): 103%
- residual activity (NEK4 (human)): 95.3%
- residual activity (PIM3 (human)): 103%
- residual activity (MAPK13 (human)): 119%
- residual activity (JAK3 JH1 JH2 (human)): 93.1%
- residual activity (IRAK1 (human)): 135%
- residual activity (AURKC (human)): 71.9%
- residual activity (MAPK1 (human)): 103%
- residual activity (RPS6KB1 (human)): 93.3%
- residual activity (TEC (human)): 117%
- residual activity (EPHA4 (human)): 99.9%
- residual activity (RPS6KB2 (human)): 99.3%
- residual activity (MST1R (human)): 99.3%
- residual activity (MARK1 (human)): 89.7%
- residual activity (PRKCZ (human)): 91.2%
- residual activity (CLK3 (human)): 95.9%
- residual activity (MST4 (human)): 107%
- residual activity (PASK (human)): 105%
- residual activity (CHUK (human)): 105%
- residual activity (CHEK2 (human)): 96.2%
